Experimental data from article PMC8123576 (International Journal of Molecular Sciences, 2021).

Experiments:
A. flavus = experiment: microbe, parasite or virus in culture; format: cell-based, Aspergillus flavus; conditions: 10 to 100 µM; complexes compared with their ligand
U937 cells = experiment: Alkaline Comet Assay; format: cell-based, human; conditions: 24 h treatment, 25-100 µM
Procedure: Our standard protocol for the Alkaline Comet Assay (pH > 13) was previously described in great detail. The DNA-damaging effects of non-cytotoxic molecules were evaluated on U937 cells using 25 μM as the lowest concentration and 100 µM as the highest for 24 h treatment. After exposure, cell viability was checked using the trypan blue exclusion method: a viability of at least 70% compared to the negative control (DMSO) was used as a cut-off for further evaluating the level of DNA damage. After electrophoresis (DNA unwinding: 20 min; electrophoresis: 20 min, 0.78 V cm^−1, 300 mA), nucleoids stained with ethidium bromide (75 µL, 10 µg/mL) were examined with a Leica DMLS fluorescence microscope (excitation filter BP 515–560 nm, barrier filter LP 580 nm), using the software Comet Assay IV (Perceptive Instruments Ltd., Suffolk, UK). Alkaline Comet assay results are expressed as tail intensity percentage that measures the percentage of total cellular DNA found in the tail of each comet.

[1] = system: S. typhimurium TA98 and TA100 strains; experiment: Ames test, overall mutagenicity verdict in bacteria; conditions: TA98 and TA100, -S9 and +S9

## CC(=NNC(N)=S)c1cccs1 [2-actpTS, 2-acetylthiophenethiosemicarbazone]
A. flavus
  impact on fungal growth: modest inhibitory activity
U937 cells
  DNA damage in Alkaline Comet Assay: did not induce significant DNA damage
[1]
  mutagenicity in bacteria: no mutagenicity at any of the concentrations tested
